Each structure is given as a SMILES string.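 Each compound was tested at five concentrations against cells in 96-well plates for 48 hours. TGI denotes the concentration required for complete inhibition of growth.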

The subject of the first test is KM20L2 colon. Put plainly: growth of human tumour cells (NCI), 48 h.
`CCOC(=O)COc1ccccc1/C=C1\CCC(CN(C)C)C1=O` (configuration not stated) had a TGI of 30.2 µM.
The same measure, in the same setting: then `Cc1c(C(=O)C/C(=N\O)C(=O)Nc2cc(Cl)c(Cl)cc2Cl)[n+](=O)c2ccccc2n1[O-]`, with 41.4 µM; and `CC1=Nc2ccccc2S/C1=C(/C)NNC(=O)C(N)=O`, with more than 100 µM; and `Nn1c(NNC(=O)C(=O)Nc2cc(Cl)c(Cl)cc2Cl)n[nH]c1=S`, with more than 100 µM.
On the same count and under the same terms, then `O=C(N/C(=C\c1ccc2c(c1)OCO2)c1nc2ccccc2[nH]1)c1ccccc1`, with more than 89.7 µM.
On to `CSc1ccc(C2OC(=O)c3ccccc32)c2ccccc12` (configuration not stated), for which the TGI was more than 100 µM.
Same read-out and setting: in the case of `Cc1[nH]ccc2c1[nH]c1cc(=O)ccc12` it was more than 100 µM; in that of `NC1C[C@H](n2cc(/C=C/Br)c(=O)[nH]c2=O)C[C@@H]1CO` (some centres not stated), more than 100 µM; in that of `O=c1/c(=C/c2ccccc2F)sc2nc3ccccc3n12`, more than 100 µM.
Still for that read-out and setting: then `O=C(NCCCCCCNC(=O)n1cc(F)c(=O)[nH]c1=O)NCCCOCCOCCOCCOCCOCCOCCOCCOCCOCCOCCOCCOCCOCCOCCOCCOCCOCCOCCOCCOCCOCCCNC(=O)C(O)C(O)C(O)C(O)CO` (configuration not stated), with more than 100 µM; and `CC1SC2=NC3=C(c4ccccc4C3=O)C(c3ccc(F)cc3)N2C1=O` (configuration not stated), with more than 100 µM.
Still for that read-out and setting: in the case of `CCCC(=O)OC1C(C(O)CO)OC2OC(C)(C)OC21` (configuration not stated) it was more than 100 µM; in that of `Cc1ccc(N=Cc2ccc3c(c2)OCO3)cc1C`, more than 100 µM; in that of `CC(=O)OCC1OC(OC2C(CSC3OC(COC(C)=O)C(OC(C)=O)C(OC(C)=O)C3OC(C)=O)OC(OC(C)=O)C(OC(C)=O)C2OC(C)=O)C(OC(C)=O)C(OC(C)=O)C1OC(C)=O` (configuration not stated), more than 100 µM.
The compound `CC1C=C(OC(=O)c2ccccc2)C(=O)C(n2cc(F)c(=O)[nH]c2=O)O1` (configuration not stated) had a TGI of more than 100 µM.
The same measure, in the same setting: then `CCc1ccccc1NC(=O)C(=O)CC(=O)c1sc(Nc2ccccc2)nc1C`, with more than 100 µM; and `COc1ccc(OC)c(NC(=O)C2=C(C)NC(C)=C(C(=O)Nc3cc(OC)ccc3OC)C2c2ccccc2)c1`, with more than 100 µM; and `Cc1ccc(NC(=O)C(=O)C(C#N)c2ccccc2C)cc1C` (configuration not stated), with more than 100 µM.
As to `Nc1ccn(CCNCCn2cnc3nc(N)[nH]c(=O)c32)c(=O)n1`, the TGI was more than 100 µM.

The next test concerns HS 578T breast. Put plainly: growth of human tumour cells (NCI), 48 h.
As for `O=C(NCCCCCCNC(=O)n1cc(F)c(=O)[nH]c1=O)NCCCOCCOCCOCCOCCOCCOCCOCCOCCOCCOCCOCCOCCOCCOCCOCCOCCOCCOCCOCCOCCOCCCNC(=O)C(O)C(O)C(O)C(O)CO` (configuration not stated), the TGI is more than 100 µM.
Same read-out and setting: then `CCCC(=O)OC1C(C(O)CO)OC2OC(C)(C)OC21` (configuration not stated), with more than 100 µM.

For the next test, the system named is LXFL 529 NSCLC. Put plainly: growth of human tumour cells (NCI), 48 h.
`C/C(=N\NS(=O)(=O)c1ccccc1)c1ccc(Cl)c(Cl)c1` showed a TGI of more than 100 µM.
`COC(=O)C(=O)C1(CCC(C)=O)c2ccccc2-c2c(C)ccc(C)c21` (configuration not stated) had a TGI of more than 100 µM.
For the compound `CC1(C)C(=NNC(=O)C[N+](C)(C)C)C(C)(C)C1=NNC(=O)C[N+](C)(C)C`, the TGI is more than 100 µM.
In the case of `COc1ccc2nc(-c3cccs3)cc(C(O)CN3CCSCC3)c2c1` (configuration not stated), the TGI worked out at 91.8 µM.
The compound `N#C/C(=C\c1ccc(O)c(O)c1)C(N)=S` showed a TGI of more than 100 µM.
In the case of `CC(C)[C@H]1CO[C@]2(C)[C@@H]3CN(Cc4ccccc4)C[C@@H]3C(=O)N12`, the TGI is more than 100 µM.
The same measure, in the same setting: in the case of `CN(C)C(=O)OC(Cn1cncn1)c1ccc(Cl)cc1Cl` (configuration not stated) it was more than 100 µM; in that of `CCOC(=O)COc1ccccc1/C=C1\CCC(CN(C)C)C1=O` (configuration not stated), 6.36 µM; in that of `Cc1c(C(=O)C/C(=N\O)C(=O)Nc2cc(Cl)c(Cl)cc2Cl)[n+](=O)c2ccccc2n1[O-]`, 30.8 µM.
On the same count and under the same terms, then `CC1=Nc2ccccc2S/C1=C(/C)NNC(=O)C(N)=O`, with more than 100 µM; and `Nn1c(NNC(=O)C(=O)Nc2cc(Cl)c(Cl)cc2Cl)n[nH]c1=S`, with more than 100 µM; and `O=C(N/C(=C\c1ccc2c(c1)OCO2)c1nc2ccccc2[nH]1)c1ccccc1`, with 97.4 µM.
Regarding `CSc1ccc(C2OC(=O)c3ccccc32)c2ccccc12` (configuration not stated), the TGI is more than 100 µM.
Still for that read-out and setting: in the case of `Cc1[nH]ccc2c1[nH]c1cc(=O)ccc12` it was more than 100 µM; in that of `C#CCOCn1cnc2c(Cl)ncnc21`, more than 100 µM.
Take `NC1C[C@H](n2cc(/C=C/Br)c(=O)[nH]c2=O)C[C@@H]1CO` (some centres not stated): the TGI is more than 100 µM.
Same read-out and setting: then `O=c1/c(=C/c2ccccc2F)sc2nc3ccccc3n12`, with more than 100 µM.
`CC1=C(C)C(=O)c2c(cc3ccccn23)C1=O`: the TGI is 28.6 µM.
On the same count and under the same terms, then `CC1SC2=NC3=C(c4ccccc4C3=O)C(c3ccc(F)cc3)N2C1=O` (configuration not stated), with more than 100 µM; and `Cc1ccc(N=Cc2ccc3c(c2)OCO3)cc1C`, with more than 100 µM.
On the same count and under the same terms, in the case of `CC(=O)OCC1OC(OC2C(CSC3OC(COC(C)=O)C(OC(C)=O)C(OC(C)=O)C3OC(C)=O)OC(OC(C)=O)C(OC(C)=O)C2OC(C)=O)C(OC(C)=O)C(OC(C)=O)C1OC(C)=O` (configuration not stated) it was more than 100 µM; in that of `NNC(=O)/C(=C/c1ccc(Cl)cc1Cl)NC(=O)c1ccccc1`, more than 100 µM; in that of `CC1C=C(OC(=O)c2ccccc2)C(=O)C(n2cc(F)c(=O)[nH]c2=O)O1` (configuration not stated), more than 100 µM.
As to `CCc1ccccc1NC(=O)C(=O)CC(=O)c1sc(Nc2ccccc2)nc1C`, the TGI is more than 100 µM.
Take `COc1ccc(OC)c(NC(=O)C2=C(C)NC(C)=C(C(=O)Nc3cc(OC)ccc3OC)C2c2ccccc2)c1`: the TGI was more than 100 µM.
Still for that read-out and setting: in the case of `Cc1ccc(NC(=O)C(=O)C(C#N)c2ccccc2C)cc1C` (configuration not stated) it was more than 100 µM; in that of `Nc1ccn(CCNCCn2cnc3nc(N)[nH]c(=O)c32)c(=O)n1`, more than 100 µM.

The subject of the next test is MDA-MB-231 breast. Put plainly: growth of human tumour cells (NCI), 48 h.
Compound `O=C(NCCCCCCNC(=O)n1cc(F)c(=O)[nH]c1=O)NCCCOCCOCCOCCOCCOCCOCCOCCOCCOCCOCCOCCOCCOCCOCCOCCOCCOCCOCCOCCOCCOCCCNC(=O)C(O)C(O)C(O)C(O)CO` (configuration not stated) gave a TGI of more than 100 µM.
Compound `CCCC(=O)OC1C(C(O)CO)OC2OC(C)(C)OC21` (configuration not stated) came in with a TGI of more than 100 µM.

Another test has as its system DU-145 prostate. Put plainly: growth of human tumour cells (NCI), 48 h.
In the case of `O=C(NCCCCCCNC(=O)n1cc(F)c(=O)[nH]c1=O)NCCCOCCOCCOCCOCCOCCOCCOCCOCCOCCOCCOCCOCCOCCOCCOCCOCCOCCOCCOCCOCCOCCCNC(=O)C(O)C(O)C(O)C(O)CO` (configuration not stated), the TGI was more than 100 µM.
Still for that read-out and setting: in the case of `CCCC(=O)OC1C(C(O)CO)OC2OC(C)(C)OC21` (configuration not stated) it was more than 100 µM.

Values taken from PubChem BioAssay (NCI).
